Key:
Assay type in all cases: cell-based, human
Details in all cases: 4 h
[1] = tested on: 5-HT receptor 4, transcript variant a, mRNA; experiment: Microarray gene expression in CD3+ lymphocytes, probe ILMN_1676350 (HTR4)
Procedure: (§1) CD3+ lymphocytes were isolated from the blood of haematologically normal volunteers. Cells placed into 25 cm^3 flasks at a concentration of 1×10^6/ml, and left to equilibrate in an incubator with a humidified atmosphere and 5% CO2 in air at 37° C. […] RNA extraction was performed using Trizol according to standard procedures, before being processed for microarray analysis according to the standard methodologies. Briefly, equal amounts of biotinylated cRNA was hybridised to the Illumina human HT 12-v3 arrays for 18 h and subsequently processed according to manufacturer's instructions before scanning on an Illumina BeadArray Reader. The image data were processed using default values in GenomeStudio v2009.1 with imputation of missing data, before loading onto GeneSpring v9.0 for data normalisation and filtering. Data analyses were performed using Excel software, and the ratio of gene expression signals in treated vs. untreated calculated.

[2] = tested on: 5-HT receptor 3A, transcript variant 1, mRNA; experiment: Microarray gene expression in CD3+ lymphocytes, probe ILMN_1681492 (HTR3A)
Procedure: as §1

5-HT receptor 1E, mRNA = experiment: Microarray gene expression in CD3+ lymphocytes, probe ILMN_1794095 (HTR1E)
Procedure: as §1

[3] = tested on: 5-HT receptor 3A, transcript variant 2, mRNA; experiment: Microarray gene expression in CD3+ lymphocytes, probe ILMN_1662070 (HTR3A)
Procedure: as §1

[4] = tested on: 5-HT receptor 7 (adenylate cyclase-coupled), transcript variant a, mRNA; experiment: Microarray gene expression in CD3+ lymphocytes, probe ILMN_1744217 (HTR7)
Procedure: as §1

5-HT receptor 2B, mRNA = experiment: Microarray gene expression in CD3+ lymphocytes, probe ILMN_1735764 (HTR2B)
Procedure: as §1

[5] = tested on: 5-HT receptor 3A, transcript variant 2, mRNA; experiment: Microarray gene expression in CD3+ lymphocytes, probe ILMN_2371079 (HTR3A)
Procedure: as §1

5-HT receptor 2C, mRNA = experiment: Microarray gene expression in CD3+ lymphocytes, probe ILMN_1801357 (HTR2C)
Procedure: as §1

[6] = tested on: 5-HT receptor 4, transcript variant hb, mRNA; experiment: Microarray gene expression in CD3+ lymphocytes, probe ILMN_1808258 (HTR4)
Procedure: as §1

[7] = tested on: mRNA for one or more of 5-HT receptor proteins; experiment: Microarray gene expression in CD3+ lymphocytes, summary over 5-HT receptors
Procedure: as §1

**Q.** With `O=C1CC[C@@]2(O)[C@H]3Cc4ccc(O)c5c4[C@@]2(CCN3CC2CC2)[C@H]1O5` [NTX, 17-cyclopropylmethyl-4.5-epoxy-3,14-dihydroxymorphinan-6-one] as the compound, how does the “gene expression signal, HTR4 transcript variant a” value ([1]; LDN 10 nM) read?
**A.** 100.20

**Q.** And the “gene expression signal, HTR4 transcript variant a” value ([1]; NTX 10 uM)?
**A.** 96.10

**Q.** What about the “gene expression signal, HTR3A transcript variant 1” value ([2]; LDN 10 nM) of the same compound?
**A.** 94.00

**Q.** What about the “gene expression signal, HTR3A transcript variant 1” value ([2]; NTX 10 uM) of the same compound?
**A.** 86.75

**Q.** And the “gene expression signal, HTR1E” value (5-HT receptor 1E, mRNA; LDN 10 nM)?
**A.** 101.20

**Q.** And the “gene expression signal, HTR1E” value (5-HT receptor 1E, mRNA; NTX 10 uM)?
**A.** 95.70

**Q.** And the “gene expression signal, HTR3A transcript variant 2” value ([3]; LDN 10 nM)?
**A.** 82.35

**Q.** And the “gene expression signal, HTR3A transcript variant 2” value ([3]; NTX 10 uM)?
**A.** 80.60

**Q.** And the “gene expression signal, HTR7 transcript variant a” value ([4]; LDN 10 nM)?
**A.** 80.00

**Q.** And the “gene expression signal, HTR7 transcript variant a” value ([4]; NTX 10 uM)?
**A.** 86.60

**Q.** And the “gene expression signal, HTR2B” value (5-HT receptor 2B, mRNA; LDN 10 nM)?
**A.** 147.45

**Q.** And the “gene expression signal, HTR2B” value (5-HT receptor 2B, mRNA; NTX 10 uM)?
**A.** 177.95

**Q.** And the “gene expression signal, HTR3A transcript variant 2” value ([5]; LDN 10 nM)?
**A.** 124.70

**Q.** And the “gene expression signal, HTR3A transcript variant 2” value ([5]; NTX 10 uM)?
**A.** 151.75

**Q.** And the “gene expression signal, HTR2C” value (5-HT receptor 2C, mRNA; LDN 10 nM)?
**A.** 85.50

**Q.** And the “gene expression signal, HTR2C” value (5-HT receptor 2C, mRNA; NTX 10 uM)?
**A.** 89.50

**Q.** What about the “gene expression signal, HTR4 transcript variant hb” value ([6]; LDN 10 nM) of the same compound?
**A.** 93.50

**Q.** And the “gene expression signal, HTR4 transcript variant hb” value ([6]; NTX 10 uM)?
**A.** 88.20

**Q.** And the “levels of mRNA for one or more of 5-HT receptor proteins” value ([7]; higher dose naltrexone (10 uM))?
**A.** increase the levels of mRNA

**Q.** And the “levels of mRNA for one or more of 5-HT receptor proteins” value ([7]; low dose naltrexone (10 nM))?
**A.** increase the levels of mRNA

From patent US20240285613A1, “TREATMENT FOR AUTOIMMUNE DISEASES” (LDN Pharma Limited, priority 2021, published 2024)
